Assay [1] addresses Disintegrin and metalloproteinase domain-containing protein 17 (Homo sapiens, UniProt P78536). Put plainly: inhibition of ADAM17 substrate cleavage – biochemical, quenched FRET substrate, counter-screen for ADAM10 exosite inhibitor project, dose response (AID 743253). A general note: Counterscreens check selectivity or assay interference.
The nature of assay [2]: potency of ADAM10 substrate cleavage blockers – biochemical, QFRET, dose response (AID 743254).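 Further: ADAM10 enzyme with the DM2 quenched FRET peptide as substrate; EDANS fluorescence gain as the protease cuts the substrate; inhibitor potency against ADAM10 proteolytic activity.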
Assay [3] relates to H4. Briefly: Luminescence Cell-Based Dose Response HTS to Identify Activators of 5'UTR Stem-Loop Driven Prion Protein mRNA Translation in H4 Neuroglioblastoma Cells. [Related pubchem assays: 1829 (Project Summary), 1814 (Primary HTS)]. The class given is functional. Conditions: Homo sapiens.
The nature of assay [4]: Luminescence Cell-Based Dose Response HTS to Identify Activators of Luciferase Translation or Activity in H4 […] Cells. [Related pubchem assays: 1829 (Project Summary), 1814 (Primary HTS)]. The class given is functional.
A short description of assay [5]: cells. The class given is functional, cell-based.
Assay [6] is described as follows: cells. It counts as functional, cell-based. The source holds these as a separate data set.
The nature of assay [7]: Luminescence Cell-Based Dose Confirmation HTS to Identify Activators of 5'UTR Stem-Loop Driven Alpha-Synuclein mRNA Translation in H4 Neuroglioblastoma Cells. [Related pubchem assays: 1829 (Project Summary), 1814 (Primary HTS)]. The class given is functional.
A short description of assay [8]: viability loss in HepG2 hepatoma cells – cell-based, ATP luminescence, cherry-pick, activator set 2, cytotoxicity control, dose response (AID 1053143). The class given is functional.
Assay [9] addresses Oxysterols receptor LXR-beta (Homo sapiens, UniProt P55055). The class given is functional, cell-based.
Assay [10] addresses Major prion protein (Homo sapiens, UniProt P04156). The class given is functional, cell-based.
A short description of assay [11]: cells.
Assay [12] deals with Nonstructural protein 1 (Influenza A virus, UniProt Q194T2). The class given is functional, Influenza A virus (A/California/07/2009(H1N1)).
The test system of assay [13] is BJ. Put plainly: BJ-TERT-LT-ST fibroblast viability loss – cell-based, RAS-independent, luminescence, dose response (AID 1935).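 Further: BJ fibroblasts immortalized with TERT plus LT and ST oncogenes.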 It counts as functional. To be noted: Homo sapiens.
Assay [14] concerns BJ. Briefly: growth inhibition of engineered Ras-driven BJ cells – cell-based, alamar blue fluorescence, cherrypicked samples, dose response (AID 2631).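 Further: confirmatory dose-response assay in RAS-dependent BJ fibroblasts engineered with TERT, LT and ST, with cytotoxicity read by fluorescence.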 It counts as functional. To be noted: Homo sapiens.
A short description of assay [15]: general mammalian cell viability loss – inhibitor set, cherry-pick, set 2, cytotoxicity control for miR-122 modulator project, dose response (AID 720697). It counts as functional, cell-based.
Assay [16] in a line: luciferase reporter signal suppression in cells – H4 neuroglioma cells, luminescence, dose response (AID 1990). The class given is functional, cell-based. On the technique in general: Reporter assays use an easily measured gene product as a stand-in for the process of interest.
The subject of assay [17] is BJ. Put plainly: BJ-TERT fibroblast viability loss – cell-based, RAS-independent, luminescence, dose response (AID 1933). To be noted: Homo sapiens. It counts as functional.
Assay [18] has as its system BJ. Briefly: cells. It counts as functional, cell-based. To be noted: Homo sapiens.
Assay [19] concerns the target Large T antigen (Simian virus 40, UniProt P03070). It counts as functional, Betapolyomavirus macacae.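 Further: Confirmatory-stage PubChem screen for compounds that inhibit SV40 T antigen.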
Assay [20] concerns the target T1, Rac GTPase-activating protein 1 (Homo sapiens, UniProt Q9H0H5).
T1 sequence (Q9H0H5 whole entry): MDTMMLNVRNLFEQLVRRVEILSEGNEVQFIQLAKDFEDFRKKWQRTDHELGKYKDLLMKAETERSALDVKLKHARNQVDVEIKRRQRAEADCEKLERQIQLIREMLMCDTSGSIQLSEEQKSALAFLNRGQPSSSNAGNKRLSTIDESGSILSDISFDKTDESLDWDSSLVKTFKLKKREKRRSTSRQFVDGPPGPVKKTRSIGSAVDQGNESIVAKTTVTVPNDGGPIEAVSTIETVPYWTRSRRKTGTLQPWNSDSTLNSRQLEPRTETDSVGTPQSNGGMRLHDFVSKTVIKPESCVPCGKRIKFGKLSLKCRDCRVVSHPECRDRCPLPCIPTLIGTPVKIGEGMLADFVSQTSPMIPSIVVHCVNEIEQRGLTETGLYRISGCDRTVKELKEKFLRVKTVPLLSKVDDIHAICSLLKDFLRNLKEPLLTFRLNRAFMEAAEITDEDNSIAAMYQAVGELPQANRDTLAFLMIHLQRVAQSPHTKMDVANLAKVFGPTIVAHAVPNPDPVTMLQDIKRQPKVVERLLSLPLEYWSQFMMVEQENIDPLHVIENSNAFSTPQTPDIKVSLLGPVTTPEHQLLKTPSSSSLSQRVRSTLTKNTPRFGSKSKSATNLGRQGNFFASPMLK
Put plainly: blockers of MgcRacGAP-driven Rac1 GTP hydrolysis – biochemical, ADP Hunter fluorescence, primary and confirmatory, confirmation (AID 624330). The class given is functional.

A short description of assay [21]: DRD fibroblast viability loss – cell-based, non-viral oncogenic, luminescence, dose response (AID 1934). The class given is functional. Conditions: Homo sapiens.
A short description of assay [22]: Luminescence Cell-Based Dose Confirmation HTS to Identify Inhibitors of Platelet Dense Granule Release. [Related pubchem assays: 1663 (Primary HTS), 1678 (Summary of Project)]. The class given is functional.
A short description of assay [23]: general mammalian cell viability loss – activator set, cherry-pick, cytotoxicity control for miR-122 modulator project, dose response (AID 720690).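 Further: HEK293T human cells scored for general mammalian cytotoxicity.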 The class given is functional, cell-based.
Assay [24] is described as follows: Luminescence Cell-Based Dose Response HTS to Identify Inhibitors of 5'UTR Stem-Loop Driven Prion Protein mRNA Translation in H4 Neuroglioblastoma Cells. [Related pubchem assays: 1827 (Project Summary), 1813 (Primary HTS)]. It counts as functional.
In assay [25] the target is Luciferin 4-monooxygenase (Photinus pyralis, UniProt P08659). Briefly: inhibition of purified Photinus pyralis luciferase – biochemical, luminescence, dose response (AID 1891).
Assay [26] is described as follows: alpha-synuclein stem-loop luciferase translation blockers – H4 neuroglioma cells, luminescence, confirmation (AID 1988). It counts as functional, cell-based.
Assay [27] can be described thus: inhibitors of TRPM1-promoter reporter in SK-MEL-5 – cell-based, luciferase, dry powder, set 8, MITF inhibitor project, dose response (AID 624430). It counts as functional.
The nature of assay [28]: MITF Orthogonal Assay: SK-MEL-5 CTG Assay Measured in Cell-Based System Using Plate Reader - 2084-02_Inhibitor_Dose_DryPowder_Activity_Set7. It counts as functional.
A short description of assay [29]: MITF: Counter assay: A375 proliferation Measured in Cell-Based System Using Plate Reader - 2084-03_Inhibitor_Dose_DryPowder_Activity_Set8. The class given is functional. To be noted: A-375.
Assay [30] is described as follows: viability loss in MITF-independent A375 cells – cell-based, CellTiter-Glo luminescence, dry powder, set 2, counter-screen for MITF inhibitor project, dose response (AID 624489).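 Further: actives are compounds lowering A375 viability meaning general cytotoxicity.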 The class given is functional. Conditions: A-375. (Cellular ATP, detected with luciferase, serves as a proxy for viable cell number.)
Assay [31] is described as follows: cytotoxicity in MITF-independent A375 cells – cell-based, CellTiter-Glo luminescence, dry powder, set 4, counter-screen for MITF inhibitor project, dose response (AID 624364).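 Further: A375 melanoma cells are MITF independent so this is a counter screen.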 Conditions: A-375. The class given is functional.
Assay [32] addresses Protein disulfide-isomerase (Homo sapiens, UniProt P07237). Briefly: inhibition of PDI-mediated insulin reduction – biochemical, turbidity, dry powder samples, set 2, confirmation (AID 652146).
For assay [33], the target named is NS3 (Hepatitis C virus, UniProt A3EZJ3). Briefly: NS3h DNA-binding inhibition IC50 – biochemical, fluorescence polarization, ChemBridge library, dose response (AID 743264).
In assay [34] the target is Potassium channel subfamily K member 9 (Homo sapiens, UniProt Q9NPC2). Briefly: KCNK9 flux blockade, concentration-response – cell-based, FluxOR thallium flux, selectivity assay for TASK1 inhibitor project, SAR follow-up (AID 652211).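 Further: potency is for inhibitors of the channel.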 It counts as functional.
The target of assay [35] is Potassium channel subfamily K member 3 (Homo sapiens, UniProt O14649). Briefly: inhibition of human KCNK3 channel flux – CHO cells, FluxOR thallium flux, SAR follow-up (AID 652212). The class given is functional.
Assay [36] addresses Photoreceptor-specific nuclear receptor (Homo sapiens, UniProt Q9Y5X4). The class given is functional, cell-based.
The nature of assay [37]: blockers of HIV-1 ZM109 envelope-driven cell-cell fusion – HeLa effector, CEM target cells, luciferase, cherry-pick, dose response (AID 652058).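 Further: luciferase signal from HIV-1 Env mediated cell-cell fusion of effector and target cells.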 It counts as functional, cell-based.
Assay [38] is described as follows: off-target signal loss in HeLa-CEM21 co-culture – HeLa F-luc CTL cells, cherry-picked, counter-screen for HIV-1 Env fusion inhibitor project, dose response (AID 652040).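 Further: potency for signal decrease marking cytotoxic or nonspecific inhibition.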 It counts as functional, cell-based.
Assay [39] in a line: HIV-1 AD8 envelope cell-cell fusion blockers – cherry-pick, dose response (AID 652062).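 Further: luciferase signal from cell-cell fusion driven by HIV-1 clade B AD8 Env; potency is for inhibitors of fusion seen as a drop in luminescence.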 It counts as functional, cell-based.
Assay [40] in a line: CMV-driven luciferase expression suppression in HEK293 – cell-based, luminescence, dry powder, counter-screen for Pax8 inhibitor project, dose response (AID 743020). It counts as functional.
Assay [41] can be described thus: viability loss in CEM21 cells – cell-based, CellTiter-Glo luminescence, cherry-picked, cytotoxicity control for viral fusion inhibitor project, dose response (AID 652042).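 Further: potency for signal decrease meaning cytotoxicity.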 The class given is functional.
For assay [42], the target named is Paired box protein Pax-8 (Homo sapiens, UniProt Q06710). Put plainly: PAX8 transcriptional activity inhibition in RMG-I – RMG-I cells, luciferase, cherry-pick, dose response (AID 687027).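 Further: luciferase reporter driven by Pax8 target thyroperoxidase promoter measured by SteadyGlo luminescence.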 It counts as functional, cell-based.
The nature of assay [43]: blockers of HIV-1 envelope-mediated cell-cell fusion – cherry-pick, dose response (AID 652057). The class given is functional, cell-based.

Active and inactive are the calls of the source.

As to `COc1cc(OC)c(N(C)S(=O)(=O)c2cccc(C(=O)OCC(=O)c3c[nH]c4ccccc34)c2)cc1Cl`, the IC50 in [1] and in assay [2] was > 69.5 µM (inactive) each time.

For the molecule `O=C(NCCc1ccccc1)c1cc(-c2ccco2)on1`, the concentration giving a half-maximal response (EC50) in assay [3] is > 120 µM (not active); in assay [4], 0.116 µM (active); in assay [5], 11.8 µM (active); in assay [6], 339 µM (active); in [7], 3.89 µM (active); in assay [9] it was > 67.5 µM (inactive). For the same molecule, in assay [8], the AC50 is 26 µM (active).

On to `Cc1nc(SCC(=O)Nc2cc(C(N)=O)cc(C(N)=O)c2)c2c(C)c(C)sc2n1`, for which the results for the IC50 in [10] and in [11] were 11.6 µM (inactive) and > 138 µM (inactive), respectively.

Turning to `Oc1ccc(/C=N/Nc2nccnc2Cl)c(O)c1`, the IC50 in [12] was 9.11 µM (active); in assay [19], 16.7 µM (active); in assay [20] it was 12.7 µM (active). For the same molecule, the half-maximal effective concentration (EC50) in [13] is 10.9 µM (active); in [14] it was 6.12 µM (active); in [16] it was 7.09 µM (active); in [17] it was 10.7 µM (active); in assay [18] it was 5.07 µM (active); in assay [21] it was 13.4 µM (active). The EC50 in assay [22] is 0.254 µM (active); in assay [24], 6.33 µM (active); in [25] it was 1.05 µM (active); in [26], 3.7 µM (active). For the same molecule, the AC50 is 3.85 µM (active) in [15] and 16.5 µM (active) in assay [23].

Regarding `CCN1CCN(C2=C(Nc3ccc(I)cc3)C(=O)c3ccccc3C2=O)CC1`, the figures for the AC50 in [27], in assay [28] and in [29] were 1.48 µM (active), 7.26 µM (active) and 16.8 µM (active), respectively.

With `CC(=O)N(C)C1=C(N2CCN(C)CC2)C(=O)c2ccccc2C1=O`, the AC50 in [30] is 5.65 µM (active); in assay [31], 12.1 µM (active).

Take `O=C(Nc1ccccc1)C1(CCOc2ccccc2)CCN(Cc2ccc(O)c(Cl)c2)CC1`: the AC50 in assay [32] was 15 µM (active).

Take `O=C1C=CC(=O)N1c1ccc(Br)cc1[N+](=O)[O-]`: the IC50 in [33] is 22.4 µM (inactive).

On to `CCOc1ccccc1NC(=O)c1cccc(NC(=O)CC2CCCCC2)c1`, for which the results for the IC50 in [34] and in [35] were 1.92 µM (active) and 0.217 µM (active), respectively.

On to `CCC1(O)C(=O)OCc2c1cc1n(c2=O)Cc2cc3c(N)cccc3nc2-1` (stereo not drawn) [RS-9-Aminocamptothecin], for which the IC50 in assay [36] was 1.83 µM (active). For the same molecule, the AC50 in assay [37] was 0.857 µM (active); in [38], < 0.26 µM (active); in [39], 0.368 µM (active); in assay [40] it was < 6.17 µM (active); in assay [41] it was 2.67 µM (active); in [42], < 0.26 µM (active). Also, the concentration at half-maximal activity (AC50) in [43] was < 0.26 µM (active).

One may read the IC50 as the concentration that inhibits the measured activity by half. For orientation: EC50 means the concentration that produces a half-maximal response. A word on the AC50: it is the concentration giving half of the maximal activity seen.

The values above are taken from ChEMBL document CHEMBL1201862, “PubChem BioAssay data set” (2004).
